In patent EP0350742A1, “6-Merkaptopurines derivatives, their preparation and their use against retrovirus infections” (HOECHST AKTIENGESELLSCHAFT, priority 1988, dated 1990):

Columns and labels:
Friend-Leukämie-Virus [1] = assay: Friend leukaemia virus (FLV) infection in the mouse, i.p. application (Tabelle I); format: in vivo, Maus; details: for rel. Milzgewicht: NMRI mice, treatment over 10 days starting 48 h after infection, spleen weighed day 14; for n* Anzahl überlebende Mäuse: groups of 10 mice
Text: (§1) Blockierung der Reverse Transkriptase-(RT)-Aktivität untersucht wird, erscheint die Wahl eines solchen Ersatzmodelles gerechtfertigt. Im vorliegenden Fall wurde die Infektion der Maus mit dem Friend-Leukämie-Virus gewählt. Dazu wurden normale Labormäuse (NMRI = Naval Medical Research Institute) durch intravenöse Injektion mit Friend-Virus enthaltendem Mäuseserum infiziert. Bei den unbehandelten Kontrolltieren entwickelte sich als Symptom der Infektion innerhalb von 2 Wochen eine deutliche Vergrößerung von Milz und Leber. Die Behandlung erfolgte über 10 Tage, beginnend 48 Stunden nach der Infektion. Am 14. Versuchstag wurden die Tiere durch Luxation der Halswirbel getötet und geöffnet. Die Milz wurde entnommen und gewogen. Als Meßparameter der therapeutischen Wirksamkeit wurde das Milzgewicht der behandelten Tiere mit dem der unbehandelten Infektionskontrolle in Relation gesetzt.
Während bei uninfizierten ausgewachsenen Labormäusen (20 - 24 g Körpergewicht) die Milz etwa 1 % des Körpergewichtes oder weniger wog, erreichte bei infizierten Tieren die Milz am Ende des Versuchs etwa 10 % des Körpergewichts.
Tabelle I zeigt die Ergebnisse der Wirksamkeitstests bei der Friend-Leukämie-Virusinfektion in der Maus bei intraperitonealer Verabreichung der erfindungsgemäßen Verbindungen. Als Kontrolle diente eine Gruppe von Mäusen, die unbehandelt blieben.
Zum Vergleich wurde eine weitere Gruppe von Mäusen mit Suramin behandelt. Tabelle I verdeutlicht, daß die erfindungsgemäßen Verbindungen besser wirken als Suramin, bei vergleichbarer oder geringerer Beeinträchtigung des Hämaglobingehaltes des Blutes. Bei Verabreichung der erfindungsgemäßen Verbindungen überlebten alle Mäuse die Behandlung, wohingegen bei der Verabreichung von Suramin 3 von 10 Mäusen starben. Weiterhin war der Behandlungserfolg, erkennbar an der Verringerung der Milzschwellung, bei Verabreichung aller getesteten Verbindungen größer als bei der Verabreichung von Suramin.

Friend-Leukämie-Virus [2] = assay: Friend leukaemia virus (FLV) infection in the mouse, oral application via drinking water (Tabelle II); format: in vivo, Maus; details: for n* Anzahl überlebende Mäuse / Hg: oral; for Hg: haemoglobin content of blood
Text: as §1, with “Bei den unbehandelten Kontrolltieren entwickelte sich als Symptom der Infektion innerhalb von 2 Wochen eine deutliche Vergrößerung von Milz und Leber.” left out

[3] = Qualitative solubility noted in the preparation examples; format: physicochemical
[4] = 0.05 mg/ml in drinking water, oral (10 x 0.17-0.18 mg/Maus)
[5] = 0.10 mg/ml in drinking water, oral (10 x 0.33-0.36 mg/Maus)
[6] = 0.50 mg/ml in drinking water, oral (10 x 1.67-1.77 mg/Maus)

SMILES | rel. Milzgewicht (Friend-Leukämie-Virus [1]; 10 x 0.1 mg/Maus i.p.) [% Körpergewicht] | rel. Milzgewicht (Friend-Leukämie-Virus [1]; 10 x 1.0 mg/Maus i.p.) [% Körpergewicht] | rel. Milzgewicht (Friend-Leukämie-Virus [2]; [4]) [% Körpergewicht] | rel. Milzgewicht (Friend-Leukämie-Virus [2]; [5]) [% Körpergewicht] | rel. Milzgewicht (Friend-Leukämie-Virus [2]; [6]) [% Körpergewicht] | n* Anzahl überlebende Mäuse (Friend-Leukämie-Virus [2]; 0.05 mg/ml in drinking water) | n* Anzahl überlebende Mäuse (Friend-Leukämie-Virus [2]; 0.10 mg/ml in drinking water) | further results
c1cncc(CSc2ncnc3[nH]cnc23)c1 [Präparat 2, 6-(3-Pyridylmethyl)-mercaptopurin] | 5.46 ± 3.32 | 1.84 ± 0.82 | 5.76 ± 2.72 | 1.46 ± 1.00 | 0.90 ±1.12 | – | – | –
Cc1ccc(C(=O)Nc2ccc(S(=O)(=O)O)c3cc(S(=O)(=O)O)cc(S(=O)(=O)O)c23)cc1NC(=O)c1cccc(NC(=O)Nc2cccc(C(=O)Nc3cc(C(=O)Nc4ccc(S(=O)(=O)O)c5cc(S(=O)(=O)O)cc(S(=O)(=O)O)c45)ccc3C)c2)c1 [Suramin, reference compound] | – | 4.54 ± 1.86 | – | – | – | – | – | Mäuse starben (Friend-Leukämie-Virus [1]; in vivo, ip): 3; rel. Milzgewicht (Friend-Leukämie-Virus [2]; 10 x 1.00 mg/Maus i.p., comparison group within the Tabelle II experiment): 4.50 ± 2.22 % Körpergwicht
Cc1cn([C@H]2C[C@H](N=[N+]=[N-])[C@@H](CO)O2)c(=O)[nH]c1=O [AZT, Azidothymidin, reference compound] | – | – | – | – | – | 10 | 10 | Hg (Friend-Leukämie-Virus [2]; 0.05 mg/ml in drinking water): 14.1 g/%; Hg (Friend-Leukämie-Virus [2]; 0.10 mg/ml in drinking water): 12.7 g/%
c1cc(CSc2ncnc3[nH]cnc23)ccn1 [Präparat 1, 6-(4-pyridylmethyl)-mercaptopurin] | 5.23 ± 2.69 | 2.08 ± 0.44 | 7.01 ± 2.99 | 4.80 ± 2.74 | 1.66 ± 1.25 | 10 | 10 | n* Anzahl überlebende Mäuse (Friend-Leukämie-Virus [1]; 10 x 0.1 mg/Maus i.p.): 10; n* Anzahl überlebende Mäuse (Friend-Leukämie-Virus [1]; 10 x 1.0 mg/Maus i.p.): 10; Hg (Friend-Leukämie-Virus [1]; 10 x 1.0 mg/Maus i.p., haemoglobin content of blood): 13.2 g/ %; n* Anzahl überlebende Mäuse (Friend-Leukämie-Virus [2]; 0.50 mg/ml in drinking water): 10; Hg (Friend-Leukämie-Virus [2]; 0.50 mg/ml in drinking water): 11.3 g/%; Löslichkeit in Wasser ([3]; free base): unlöslich; Löslichkeit in allen säurehaltigen Flüssigkeiten ([3]; free base): gut löslich
C=CCSc1ncnc2[nH]cnc12 [Präparat 3, 6-(2-propenyl)-mercaptopurin] | 5.86 ± 1.84 | 1.37 ± 0.38 | 4.52 ± 2.28 | 1.51 ± 1.26 | – | – | – | Löslichkeit in Alkohol, heißem Wasser und Polyethylenglykol [3]: leicht löslich; Löslichkeit in kaltem Wasser [3]: Schwer löslich
